“And” between values parts separate entries of the source, which are not always exact repeats. Equal entries are not always repeated. Where two headings read alike, the source gives them in different places.
Key:
SARS2 = format: cell-based, SARS-CoV-2

## CN(C)CCN(Cc1ccsc1)Cc1ccc(CO)o1 [SILCS9]
Cells (nuclei count); 1 μM, toxicity data, 100=DMSO control
  Relative cell count to DMSO controls, Average 1 μM: 105.37
Cells (nuclei count); 5 μM, toxicity data, 100=DMSO control
  Relative cell count to DMSO controls, Average 5 μM: 103.56
Cells (nuclei count); 10 μM, toxicity data, 100=DMSO control
  Relative cell count to DMSO controls, Average 10 μM: 111.19
Cells (nuclei count); 25 μM, toxicity data, 100=DMSO control
  Relative cell count to DMSO controls, Average 25 μM: 92.21
Cells (nuclei count); 50 μM, toxicity data, 100=DMSO control
  Relative cell count to DMSO controls, Average 50 μM: 60.67
Cells (nuclei count); Average of Exp 1-3, 1 uM
  Toxicity Data, Average, Mean (relative to DMSO control): 105.37%
Cells (nuclei count); Average of Exp 1-3, 5 uM
  Toxicity Data, Average, Mean (relative to DMSO control): 103.56%
Cells (nuclei count); Average of Exp 1-3, 10 uM
  Toxicity Data, Average, Mean (relative to DMSO control): 111.19%
Cells (nuclei count); Average of Exp 1-3, 25 uM
  Toxicity Data, Average, Mean (relative to DMSO control): 92.21%
Cells (nuclei count); Average of Exp 1-3, 50 uM
  Toxicity Data, Average, Mean (relative to DMSO control): 60.67%
Cells (nuclei count); average value over the 5 tested concentrations (1 to 50 uM)
  Relative cell count to DMSO controls, Average (for correlation analysis): 94.60
SARS2
  Percentage Infection Relative to DMSO Control, Average, Mean: 95.98% and 111.45% and 120.58% and 120.66% and 113.21%
  SARS2 antiviral activity: significant loss of activity
SARS2; SARS2, 1 μM
  Percentage Inhibition Average 1 μM: −13.21%
SARS2; SARS2, 1 μM, 100=DMSO control
  Screening data (Relative infection to DMSO controls) Average 1 μM: 113.21
SARS2; SARS2, 5 μM
  Percentage Inhibition Average 5 μM: −20.66%
SARS2; SARS2, 5 μM, 100=DMSO control
  Screening data (Relative infection to DMSO controls) Average 5 μM: 120.66
SARS2; SARS2, 10 μM
  Percentage Inhibition Average 10 μM: −20.58%
SARS2; SARS2, 10 μM, 100=DMSO control
  Screening data (Relative infection to DMSO controls) Average 10 μM: 120.58
SARS2; SARS2, 25 μM
  Percentage Inhibition Average 25 μM: −11.45%
SARS2; SARS2, 25 μM, 100=DMSO control
  Screening data (Relative infection to DMSO controls) Average 25 μM: 111.45
SARS2; SARS2, 50 μM
  Percentage Inhibition Average 50 μM: 4.02%
SARS2; SARS2, 50 μM, 100=DMSO control
  Screening data (Relative infection to DMSO controls) Average 50 μM: 95.98
SARS2; SARS2, average over 1 to 50 uM, 100=DMSO control
  Average (relative infection to DMSO over the 5 tested concentrations): 112.38
